Reference: patent KR20150001353A, “Fms 키나아제 저해 활성을 갖는 피리미딘 유도체” (한미약품 주식회사, priority 2013, dated 2015)

What was measured:
[1] = target: T1, recombinant human FMS kinase (재조합 인간 FMS 키나아제) (Homo sapiens, UniProt P07333); assay: FMS kinase inhibitory activity evaluation (Test Example 1; FRET, Z'-Lyte kinase assay-Tyr 1 peptide kit); type: biochemical; details: 0.3 µg/mL FMS, 150 μM ATP, room temperature, 1 h
T1 construct: purchased Invitrogen pv3249

[2] = test system: M-NFS-60 cell line (M-NFS-60 세포주); assay: M-NFS-60 cell line evaluation (Test Example 2; MTT, CellTiter 96 Assay); type: cell-based; details: recombinant M-CSF 20 ng/mL, 5% FBS, compound 10 μM to 0.1 nM, 590 nm

T1 sequence (P07333 20-972): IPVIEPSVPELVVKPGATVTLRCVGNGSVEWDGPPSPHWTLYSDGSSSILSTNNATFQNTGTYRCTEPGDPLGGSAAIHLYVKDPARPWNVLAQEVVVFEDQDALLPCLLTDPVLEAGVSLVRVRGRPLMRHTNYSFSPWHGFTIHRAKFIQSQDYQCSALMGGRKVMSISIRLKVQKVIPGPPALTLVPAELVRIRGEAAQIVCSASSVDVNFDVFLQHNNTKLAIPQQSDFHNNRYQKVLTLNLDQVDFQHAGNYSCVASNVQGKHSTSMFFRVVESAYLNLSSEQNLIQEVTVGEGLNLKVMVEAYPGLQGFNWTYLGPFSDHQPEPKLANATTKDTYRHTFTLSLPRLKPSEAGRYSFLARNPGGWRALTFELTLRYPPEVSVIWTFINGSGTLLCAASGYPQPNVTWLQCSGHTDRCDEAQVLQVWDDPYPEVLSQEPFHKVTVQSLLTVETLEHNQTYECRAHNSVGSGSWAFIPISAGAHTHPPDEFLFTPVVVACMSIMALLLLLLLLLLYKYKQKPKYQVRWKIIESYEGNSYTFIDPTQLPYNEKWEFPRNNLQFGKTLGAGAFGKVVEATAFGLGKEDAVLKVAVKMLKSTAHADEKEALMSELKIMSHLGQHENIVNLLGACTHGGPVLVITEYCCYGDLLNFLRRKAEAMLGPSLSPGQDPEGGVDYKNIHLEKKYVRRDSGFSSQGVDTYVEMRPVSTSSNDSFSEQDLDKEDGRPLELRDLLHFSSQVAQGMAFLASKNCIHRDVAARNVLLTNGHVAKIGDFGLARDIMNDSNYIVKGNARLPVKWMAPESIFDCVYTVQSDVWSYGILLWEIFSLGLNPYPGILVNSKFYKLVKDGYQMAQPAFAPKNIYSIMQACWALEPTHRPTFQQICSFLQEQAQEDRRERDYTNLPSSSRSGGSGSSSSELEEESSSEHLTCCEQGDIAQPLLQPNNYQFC

| Compound | IC50 [1] [nM] | IC50 [2] [nM] |
| --- | --- | --- |
| COc1ccc(CNc2cc(N(C)C(=O)Nc3cccc4c3c(C)nn4Cc3cccc(F)n3)ncn2)c(OC)c1 [실시예 9, 1-(6-(2,4-디메톡시벤질아미노)피리미딘-4-일)-3-(1-((6-플루오로피리딘-2-일)메틸)-3-메틸-1H-인다졸-4-일)-1-메틸우레아] | 65 |  |
| COc1cccc(Cn2nc(C)c3c(NC(=O)N(C)c4cc(N)ncn4)cccc32)c1 [실시예 18, 1-(6-아미노피리미딘-4-일)-3-(1-(3-메톡시벤질)-3-메틸-1H-인다졸-4-일)-1-메틸우레아] | 14 | 201 |
